# Experimental data: patent US8269026B2, “Lupane derivatives useful for treating HIV” (priority 2008, dated 2012)
# Counter-ions that a name gives are not always drawn.
# Tested on: HIV-1 (HIVIIIB) replication in MT2 cell line
# Experiment: HIV-1 replication in MT2 cell line with and without 30% human serum (viral RT activity in supernatant)
# Type: cell-based
# Conditions: Human immunodeficiency virus 1, MT2 cells, with 30% human serum, average IC50 if tested more than once, read-out: MT2 (HIVIIIB) with HS 30% IC50 range
# Method in brief: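 Read-out is supernatant reverse transcriptase activity on day 5 post-infection, giving IC50 and IC90. Compounds were titrated in complete medium ± 30% human serum, re-dosed after 3 days, on MT2 cells exposed for 3 h to HIVIIIB at MOI 0.5 then washed.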
row,SMILES,IC50 [µM]
1,"CC(C)C1=C2[C@H]3CC[C@@H]4[C@@]5(C)CC[C@H](OC(=O)CC(C)(C)C(=O)O)C(C)(C)[C@@H]5CC[C@@]4(C)[C@]3(C)CC[C@@]2(N)CC1=O [15-1, 3β-O-(3′,3′-Dimethylsuccinyl)-17β-amino-21-oxolup-18-ene hydrochloride]",< 0.199
2,"CC(C)C1=C2C3CCC4[C@@]5(C)CC[C@H](OC(=O)CC(C)(C)C(=O)O)C(C)(C)C5CC[C@@]4(C)[C@]3(C)CC[C@@]2(NC(=O)OC2CCCC2)CC1=O (stereo partly drawn) [20-4, 3β-O-(3′,3′-Dimethylsuccinyl)-17β-cyclopentyloxycarbonylamino-21-oxolup-18-ene]",< 0.199
3,"CC(C)C1=C2[C@H]3CC[C@@H]4[C@@]5(C)CC[C@H](OC(=O)CC(C)(C)C(=O)O)C(C)(C)[C@@H]5CC[C@@]4(C)[C@]3(C)CC[C@@]2(NC(=O)c2ccccc2)CC1=O [19-2, 3β-O-(3′,3% Dimethylsuccinyl)-17β-benzamido-21-oxolup-18-ene]",< 0.199
4,"Cc1nc(C(=O)N[C@@]23CC[C@]4(C)C(CCC5[C@@]6(C)CC[C@H](OC(=O)CC(C)(C)C(=O)O)C(C)(C)C6CC[C@]54C)C2=C(C(C)C)C(=O)C3)no1 (stereo partly drawn) [19-68, 3β-O-(3′,3′-Dimethylsuccinyl)-17β-(5-methyl-[1,2,4]oxadiazole-3-amido)-21-oxolup-18-ene]",< 0.199
5,"CC(C)C1=C2C3CCC4[C@@]5(C)CC[C@H](OC(=O)CC(C)(C)C(=O)O)C(C)(C)C5CC[C@@]4(C)[C@]3(C)CC[C@@]2(NC(=O)c2nnc(C(C)C)o2)CC1=O (stereo partly drawn) [19-84, 3β-O-(3′,3′-Dimethylsuccinyl)-17β-(5-isopropyl-[1,3,4]-oxadiazole-2-amido)-21-oxolup-18-ene]",< 0.199
6,"Cc1cc(NC(=O)N[C@@]23CC[C@]4(C)[C@H](CC[C@@H]5[C@@]6(C)CC[C@H](OC(=O)CC(C)(C)C(=O)O)C(C)(C)[C@@H]6CC[C@]54C)C2=C(C(C)C)C(=O)C3)ccn1 [17-47, 3β-O-(3′,3′-Dimethylsuccinyl)-17β-(N′-2-methylpyridin-4-yl-ureido)-21-oxolup-18-ene]",< 0.199
7,"CC(C)C1=C2C3CCC4[C@@]5(C)CC[C@H](OC(=O)CC(C)(C)C(=O)O)C(C)(C)C5CC[C@@]4(C)[C@]3(C)CC[C@@]2(NC(=O)NCc2ccncn2)CC1=O (stereo partly drawn) [17-52, 3β-O-(3′,3′-Dimethylsuccinyl)-17β-[N′-(pyrimidin-4-ylmethyl)ureido]-21-oxolup-18-ene]",< 0.199
8,"Cc1ccncc1C(=O)N[C@@]12CC[C@]3(C)[C@H](CC[C@@H]4[C@@]5(C)CC[C@H](OC(=O)CC(C)(C)C(=O)O)C(C)(C)[C@@H]5CC[C@]43C)C1=C(C(C)C)C(=O)C2 [19-49, 3β-O-(3′,3′-Dimethylsuccinyl)-17β-(4-methylpyridin-3-yl)amido-21-oxolup-18-ene]",< 0.199
9,"CC(C)C1=C2C3CCC4[C@@]5(C)CC[C@H](OC(=O)CC(C)(C)C(=O)O)C(C)(C)C5CC[C@@]4(C)[C@]3(C)CC[C@@]2(NC(=O)NC(C)(C)c2ccccc2)CC1=O (stereo partly drawn) [17-63, 3β-O-(3′,3′-Dimethylsuccinyl)-17β-[N′-(1-methyl-1-phenyl-ethyl)-ureido]-21-oxolup-18-ene]",< 0.199
10,"CC(C)C1=C2[C@H]3CC[C@@H]4[C@@]5(C)CC[C@H](OC(=O)CC(C)(C)C(=O)O)C(C)(C)[C@@H]5CC[C@@]4(C)[C@]3(C)CC[C@@]2(NC(=O)c2nccs2)CC1=O [19-21, 3β-O-(3′,3′-Dimethylsuccinyl)-17β-(1,3-thiazole-2-amido)-21-oxolup-18-ene]",< 0.199
11,"CC(C)C1=C2C3CCC4[C@@]5(C)CC[C@H](OC(=O)CC(C)(C)C(=O)O)C(C)(C)C5CC[C@@]4(C)[C@]3(C)CC[C@@]2(NC(=O)NCc2cncnc2)CC1=O (stereo partly drawn) [17-68, 3β-O-(3′,3′-Dimethylsuccinyl)-17β-[N′-(pyrimidin-5-ylmethyl)ureido]-21-oxolup-18-ene]",< 0.199
12,"CC(C)C1=C2C3CCC4[C@@]5(C)CC[C@H](OC(=O)CC(C)(C)C(=O)O)C(C)(C)C5CC[C@@]4(C)[C@]3(C)CC[C@@]2(NC(=O)N[C@H](C)C2CCCCC2)CC1=O (stereo partly drawn) [17-55, 3β-O-(3′,3′-Dimethylsuccinyl)-17β-[N′-((R)-1-cyclohexyl-ethyl)ureido]-21-oxolup-18-ene]",< 0.199
13,"CC(C)C1=C2[C@H]3CC[C@@H]4[C@@]5(C)CC[C@H](OC(=O)CC(C)(C)C(=O)O)C(C)(C)[C@@H]5CC[C@@]4(C)[C@]3(C)CC[C@@]2(NC(=O)NCc2ccnn2C)CC1=O [17-76, 3β-O-(3′,3′-Dimethylsuccinyl)-17β-[N′-(2-methyl-2H-pyrazol-3-yl-methyl)-ureido]-21-oxolup-18-ene]",< 0.199
14,"CC(C)C1=C2[C@H]3CC[C@@H]4[C@@]5(C)CC[C@H](OC(=O)CC(C)(C)C(=O)O)C(C)(C)[C@@H]5CC[C@@]4(C)[C@]3(C)CC[C@@]2(NC(=O)Nc2ccncn2)CC1=O [17-46, 3β-O-(3′,3′-Dimethylsuccinyl)-17β-(N′-pyrimidin-4-yl-ureido)-21-oxolup-18-ene]",< 0.199
15,"CC(C)C1=C2[C@H]3CC[C@@H]4[C@@]5(C)CC[C@H](OC(=O)CC(C)(C)C(=O)O)C(C)(C)[C@@H]5CC[C@@]4(C)[C@]3(C)CC[C@@]2(NC(=O)c2ccccn2)CC1=O [19-15, 3β-O-(3′,3′-Dimethylsuccinyl)-17β-(Pyridin-2-yl)amido-21-oxolup-18-ene hydrochloride]",< 0.199
16,"CC(C)C1=C2C3CCC4[C@@]5(C)CC[C@H](OC(=O)CC(C)(C)C(=O)O)C(C)(C)C5CC[C@@]4(C)[C@]3(C)CC[C@@]2(NC(=O)c2ccsc2)CC1=O (stereo partly drawn) [19-78, 3β-O-(3′,3′-Dimethylsuccinyl)-17β-(thiophene-3-amido)-21-oxolup-18-ene]",< 0.199
17,"CC(C)C1=C2[C@H]3CC[C@@H]4[C@@]5(C)CC[C@H](OC(=O)CC(C)(C)C(=O)O)C(C)(C)[C@@H]5CC[C@@]4(C)[C@]3(C)CC[C@@]2(NC(=O)c2cccnc2O)CC1=O [19-51, 3β-O-(3′,3′-Dimethylsuccinyl)-17β-(2-hydroxypyridin-3-yl)amido-21-oxolup-18-ene]",< 0.199
18,"CC(C)C1=C2[C@H]3CC[C@@H]4[C@@]5(C)CC[C@H](OC(=O)CC(C)(C)C(=O)O)C(C)(C)C5CC[C@@]4(C)[C@]3(C)CC[C@@]2(NC(=O)NC[C@@H]2CCCN2)CC1=O (stereo partly drawn) [17-38, 3β-O-(3′,3′-Dimethylsuccinyl)-17β-(3-(S)-1-pyrrolidin-2-ylmethyl-ureido)-21-oxolup-18-ene]",< 0.199
19,"CC(C)C1=C2C3CCC4[C@@]5(C)CC[C@H](OC(=O)CC(C)(C)C(=O)O)C(C)(C)C5CC[C@@]4(C)[C@]3(C)CC[C@@]2(NC(=O)NCC2CCC(F)(F)CC2)CC1=O (stereo partly drawn) [17-60, 3β-O-(3′,3′-Dimethylsuccinyl)-17β-[N′-(4,4-difluoro-cyclohexyl-methyl)ureido]-21-oxolup-18-ene]",< 0.199
20,"CC(C)C1=C2[C@H]3CC[C@@H]4[C@@]5(C)CC[C@H](OC(=O)CC(C)(C)C(=O)O)C(C)(C)[C@@H]5CC[C@@]4(C)[C@]3(C)CC[C@@]2(NC(=O)c2cccs2)CC1=O [19-20, 3β-O-(3′,3′-Dimethylsuccinyl)-17β-(2-thiophene)amido-21-oxolup-18-ene]",< 0.199
21,CC(C)C1=C2C3CCC4[C@@]5(C)CC[C@H](OC(=O)CC(C)(C)C(=O)O)C(C)(C)C5CC[C@@]4(C)[C@]3(C)CC[C@@]2(NC(=O)[C@@H]2CCCN2C(C)C)CC1=O (stereo partly shown) [19-56],< 0.199
22,"Cc1cc(C(=O)N[C@@]23CC[C@]4(C)[C@H](CC[C@@H]5[C@@]6(C)CC[C@H](OC(=O)CC(C)(C)C(=O)O)C(C)(C)[C@@H]6CC[C@]54C)C2=C(C(C)C)C(=O)C3)cc(C)n1 [19-64, 3β-O-(3′,3′-Dimethylsuccinyl)-17β-(2,6-dimethylpyridin-4-yl)amido-21-oxolup-18-ene]",< 0.199
23,"CC(C)C1=C2C3CCC4[C@@]5(C)CC[C@H](OC(=O)CC(C)(C)C(=O)O)C(C)(C)C5CC[C@@]4(C)[C@]3(C)CC[C@@]2(NC(=O)NCc2ccccn2)CC1=O (stereo partly drawn) [17-27, 3β-O-(3′,3′-Dimethylsuccinyl)-17β-[N′-(pyridin-2-ylmethyl)ureido]-21-oxolup-18-ene]",< 0.199
24,"CC(C)C1=C2C3CCC4[C@@]5(C)CC[C@H](OC(=O)CC(C)(C)C(=O)O)C(C)(C)C5CC[C@@]4(C)[C@]3(C)CC[C@@]2(NC(=O)OC2CCN(C(=O)OC(C)(C)C)CC2)CC1=O (stereo partly drawn) [20-6, 3β-O-(3′,3′-Dimethylsuccinyl)-17β-[(1-carboxylic acid tert-butyl ester)-piperidine-4-oxycarbonylamino]-21-oxolup-18-ene]",< 0.199
25,"CC(C)C1=C2C3CCC4[C@@]5(C)CC[C@H](OC(=O)CC(C)(C)C(=O)O)C(C)(C)C5CC[C@@]4(C)[C@]3(C)CC[C@@]2(NC(=O)NCc2ccsc2)CC1=O (stereo partly drawn) [17-75, 3β-O-(3′,3′-Dimethylsuccinyl)-17β-[N′-(thiophen-3-ylmethyl)-ureido]-21-oxolup-18-ene]",< 0.199

# Same assay, conditions: Human immunodeficiency virus 1, MT2 cells, without human serum, average IC50 if tested more than once, read-out: MT2 (HIVIIIB) IC50 range
row,SMILES,IC50 [µM]
1,"CC(C)C1=C2[C@H]3CC[C@@H]4[C@@]5(C)CC[C@H](OC(=O)CC(C)(C)C(=O)O)C(C)(C)[C@@H]5CC[C@@]4(C)[C@]3(C)CC[C@@]2(N)CC1=O [15-1, 3β-O-(3′,3′-Dimethylsuccinyl)-17β-amino-21-oxolup-18-ene hydrochloride]",< 0.199
2,"CC(C)C1=C2[C@H]3CC[C@@H]4[C@@]5(C)CC[C@H](OC(=O)CC(C)(C)C(=O)O)C(C)(C)[C@@H]5CC[C@@]4(C)[C@]3(C)CC[C@@]2(NC(=O)c2ccccc2)CC1=O [19-2, 3β-O-(3′,3% Dimethylsuccinyl)-17β-benzamido-21-oxolup-18-ene]",< 0.199
3,"CC(C)C1=C2C3CCC4[C@@]5(C)CC[C@H](OC(=O)CC(C)(C)C(=O)O)C(C)(C)C5CC[C@@]4(C)[C@]3(C)CC[C@@]2(NC(=O)OC2CCN(C(=O)OC(C)(C)C)CC2)CC1=O (stereo partly drawn) [20-6, 3β-O-(3′,3′-Dimethylsuccinyl)-17β-[(1-carboxylic acid tert-butyl ester)-piperidine-4-oxycarbonylamino]-21-oxolup-18-ene]",< 0.199
